# Test results taken from publication PMC9061999, “Application of the Adverse Outcome Pathway Concept to In Vitro Nephrotoxicity Assessment: Kidney Injury due to Receptor-Mediated Endocytosis and Lysosomal Overload as a Case Study” (Frontiers in Toxicology, 2022).
# Test system: RPTEC/TERT1 cells
# Experiment: Cathepsin D immunofluorescence (KE2, disruption of lysosomes)
# Type: cell-based, human
# Description: For immunocytochemistry experiments, cells were seeded into 8-well chamber slides (Ibidi) at a density of 140 cells per µL in 300 µL growth medium and were allowed to grow for 48 h (NRK-52E) or 10 d (RPTEC/TERT1) respectively. For treatment, stock solutions (1,000 µM) of compounds dissolved in growth medium were freshly prepared and serial dilutions were made before exposure of cells for 24 h. After treatment, cells were washed twice with 150 µL PBS and fixed with 150 µL 4% paraformaldehyde in 1 x PBS for 10 min at room temperature. […]
# After incubation with primary antibody, cells were washed three times for 15 min with 0.2% Tween in 1 x PBS (150 µL) on an orbital shaker. […] To preserve fluorescence 50–100 µL DAPI mounting medium (Vectashield®; Vectorlab, Biozol) was added to the cells and chamber slides were stored at 4°C in the dark until image acquisition.
# Images were taken with a TCS SP5 II confocal microscope with an HCX PL APO lambda blue 63.0 × 1.40 OIL UV objective (Leica Microsystems, Wetzlar, GER) (n = 10 cells/treatment group). […] Before quantification, images were blinded and randomized. Quantification of fluorescence intensity was performed using NIH Image® software. […] The mean values of the pixel intensities were automatically calculated by the software and imported in Excel for further processing.
substance,measurement,setting,value
Polymyxin B,"BMC10, KE2","in vitro POD from KE dose-response, cathepsin D intensity, RPTEC/TERT1, 24 h treatment, n = 3",6.8 µM
same,"MOE, KE2",margin of exposure: BMC10 in RPTEC/TERT1 vs human plasma/serum concentration (cmax or css),1.7 - 11.9
